Measured values taken from the supplement of paper PMC12282887.

Tests used:
Experiment in all cases: fitness (OD AUC treated / untreated) (fraction); higher = more growth
E. coli BW25113 Drob = test system: E. coli BW25113 Drob
Protocol: (§1)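 MIC curves of ciprofloxacin or amoxicillin, with or without 55.5 µg/ml caffeine, against E. coli BW25113 wild type, deletion mutants (ΔmicF, ΔompF, Δrob) and complemented strains. Assays ran in LB at 37°C in 96/384-well plates. Fitness is the OD600 AUC over 8 h divided by the no-drug control; 3-4 biological replicates.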

E. coli BW25113 WT = test system: E. coli BW25113 WT
Protocol: as §1

[1] = test system: E. coli BW25113 Drob + rob
Protocol: as §1

[2] = test system: E. coli BW25113 DompF + ompF
Protocol: as §1

E. coli BW25113 DmicF = test system: E. coli BW25113 DmicF
Protocol: as §1

[3] = test system: E. coli BW25113 DmicF + micF
Protocol: as §1

CC1(C)S[C@@H]2[C@H](NC(=O)[C@H](N)c3ccc(O)cc3)C(=O)N2[C@H]1C(=O)O [Amoxicillin]
fitness
Details	E. coli BW25113 Drob	E. coli BW25113 WT	[1]
antibiotic concentration 0.72727 µg/ml, caffeine concentration 0 µg/ml	1.06	1.02	1.04
antibiotic concentration 0.72727 µg/ml, caffeine concentration 55.4857 µg/ml	0.954	0.986	0.988
antibiotic concentration 1.45455 µg/ml, caffeine concentration 0 µg/ml	1.067	1.03	1.098
antibiotic concentration 1.45455 µg/ml, caffeine concentration 55.4857 µg/ml	0.96	0.995	1.013
antibiotic concentration 2.18182 µg/ml, caffeine concentration 0 µg/ml	0.956	1.01	1.06
antibiotic concentration 2.18182 µg/ml, caffeine concentration 55.4857 µg/ml	0.8209	1.02	1
antibiotic concentration 2.90909 µg/ml, caffeine concentration 0 µg/ml	0.233	0.791	0.381
antibiotic concentration 2.90909 µg/ml, caffeine concentration 55.4857 µg/ml	0.207	1.07	0.976
antibiotic concentration 3.63636 µg/ml, caffeine concentration 0 µg/ml	0.107	0.246	0.156
antibiotic concentration 3.63636 µg/ml, caffeine concentration 55.4857 µg/ml	0.0967	0.971	0.653
antibiotic concentration 4.36364 µg/ml, caffeine concentration 0 µg/ml	0.0398	0.114	0.0865
antibiotic concentration 4.36364 µg/ml, caffeine concentration 55.4857 µg/ml	0.0126	0.637	0.219
antibiotic concentration 5.09091 µg/ml, caffeine concentration 0 µg/ml	4.88e-05	0.0723	0.0167
antibiotic concentration 5.09091 µg/ml, caffeine concentration 55.4857 µg/ml	0.000488	0.251	0.113
antibiotic concentration 5.81818 µg/ml, caffeine concentration 0 µg/ml	0	0.0283	0
antibiotic concentration 5.81818 µg/ml, caffeine concentration 55.4857 µg/ml	0	0.133	0.0601
antibiotic concentration 6.54545 µg/ml, caffeine concentration 0 µg/ml	0	0	0
antibiotic concentration 6.54545 µg/ml, caffeine concentration 55.4857 µg/ml	0	0.0838	0.00196
antibiotic concentration 7.27273 µg/ml, caffeine concentration 0 µg/ml	0	0	0
antibiotic concentration 7.27273 µg/ml, caffeine concentration 55.4857 µg/ml	0.000488	0.0273	0
antibiotic concentration 8 µg/ml, caffeine concentration 0 µg/ml	0	0	0
antibiotic concentration 8 µg/ml, caffeine concentration 55.4857 µg/ml	0	0.00395	0.000108

O=C(O)c1cn(C2CC2)c2cc(N3CCNCC3)c(F)cc2c1=O [Ciprofloxacin]
fitness
Details	E. coli BW25113 DmicF	E. coli BW25113 Drob	E. coli BW25113 WT	[2]	[3]
antibiotic concentration 0.00227 µg/ml, caffeine concentration 0 µg/ml	0.916	1.07	1.07	–	1.05
antibiotic concentration 0.00227 µg/ml, caffeine concentration 55.4857 µg/ml	0.927	0.883	0.995	–	–
antibiotic concentration 0.00455 µg/ml, caffeine concentration 0 µg/ml	0.793	0.845	0.987	–	1.01
antibiotic concentration 0.00455 µg/ml, caffeine concentration 55.4857 µg/ml	0.867	0.887	0.986	–	–
antibiotic concentration 0.00682 µg/ml, caffeine concentration 0 µg/ml	0.625	0.754	0.99	–	0.985
antibiotic concentration 0.00682 µg/ml, caffeine concentration 55.4857 µg/ml	0.684	0.733	1	–	0.99
antibiotic concentration 0.00909 µg/ml, caffeine concentration 0 µg/ml	0.435	0.641	0.891	–	0.876
antibiotic concentration 0.00909 µg/ml, caffeine concentration 55.4857 µg/ml	–	0.619	0.953	–	0.941
antibiotic concentration 0.01136 µg/ml, caffeine concentration 0 µg/ml	0.232	0.42	0.766	–	0.679
antibiotic concentration 0.01136 µg/ml, caffeine concentration 55.4857 µg/ml	–	0.383	0.938	–	0.798
antibiotic concentration 0.01364 µg/ml, caffeine concentration 0 µg/ml	0.153	0.266	0.58	0.748	0.381
antibiotic concentration 0.01364 µg/ml, caffeine concentration 55.4857 µg/ml	–	0.199	0.82	0.89	0.571
antibiotic concentration 0.01591 µg/ml, caffeine concentration 0 µg/ml	0.0556	0.143	0.448	–	0.154
antibiotic concentration 0.01591 µg/ml, caffeine concentration 55.4857 µg/ml	–	0.114	0.728	–	0.329
antibiotic concentration 0.01818 µg/ml, caffeine concentration 0 µg/ml	0.017	0.0644	0.304	–	0.0704
antibiotic concentration 0.01818 µg/ml, caffeine concentration 55.4857 µg/ml	–	0.0408	0.607	–	0.207
antibiotic concentration 0.02045 µg/ml, caffeine concentration 0 µg/ml	0.0088	0.0847	0.192	0.541	0.0466
antibiotic concentration 0.02045 µg/ml, caffeine concentration 55.4857 µg/ml	–	0.0665	0.482	0.771	0.119
antibiotic concentration 0.02273 µg/ml, caffeine concentration 0 µg/ml	0.00491	0.0851	0.101	–	0.045
antibiotic concentration 0.02273 µg/ml, caffeine concentration 55.4857 µg/ml	0.00595	0.0576	0.374	–	0.0506
antibiotic concentration 0.025 µg/ml, caffeine concentration 0 µg/ml	0	0.0782	0.0921	–	0.0379
antibiotic concentration 0.025 µg/ml, caffeine concentration 55.4857 µg/ml	0	0.0414	0.276	–	0.0446
antibiotic concentration 0.02727 µg/ml, caffeine concentration 0 µg/ml	–	–	–	0.238	–
antibiotic concentration 0.02727 µg/ml, caffeine concentration 55.4857 µg/ml	–	–	–	0.558	–
antibiotic concentration 0.03409 µg/ml, caffeine concentration 0 µg/ml	–	–	–	0.0975	–
antibiotic concentration 0.03409 µg/ml, caffeine concentration 55.4857 µg/ml	–	–	–	0.359	–
antibiotic concentration 0.04091 µg/ml, caffeine concentration 0 µg/ml	–	–	–	0.039	–
antibiotic concentration 0.04091 µg/ml, caffeine concentration 55.4857 µg/ml	–	–	–	0.194	–
antibiotic concentration 0.04773 µg/ml, caffeine concentration 0 µg/ml	–	–	–	0.032	–
antibiotic concentration 0.04773 µg/ml, caffeine concentration 55.4857 µg/ml	–	–	–	0.102	–
antibiotic concentration 0.05455 µg/ml, caffeine concentration 0 µg/ml	–	–	–	0.0267	–
antibiotic concentration 0.05455 µg/ml, caffeine concentration 55.4857 µg/ml	–	–	–	0.0511	–
antibiotic concentration 0.06136 µg/ml, caffeine concentration 0 µg/ml	–	–	–	0.0262	–
antibiotic concentration 0.06136 µg/ml, caffeine concentration 55.4857 µg/ml	–	–	–	0.0404	–
antibiotic concentration 0.06818 µg/ml, caffeine concentration 0 µg/ml	–	–	–	0.0324	–
antibiotic concentration 0.06818 µg/ml, caffeine concentration 55.4857 µg/ml	–	–	–	0.0403	–
antibiotic concentration 0.075 µg/ml, caffeine concentration 0 µg/ml	–	–	–	0.0312	–
antibiotic concentration 0.075 µg/ml, caffeine concentration 55.4857 µg/ml	–	–	–	0.0317	–
